Assay results: ChEMBL document CHEMBL1201862, “PubChem BioAssay data set” (2004)
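Interpolation was linear, between the two tested concentrations surrounding the appropriate level; five concentrations were tested over 48 hours in 96-well plates. GI50: concentration for 50% inhibition of growth.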 Active and inactive are the calls of the source. Rule as the data show it: active = GI50 up to about 1.1 µM and inactive = higher.

Experiments:
Experiment in all cases: NCI-60 cell line screen, 48 h
786-0 = test system: 786-0
A498 = test system: A498
A549 = test system: A549
ACHN = test system: ACHN
BT-549 = test system: BT-549
CAKI-1 = test system: CAKI-1
CCRF-CEM = test system: CCRF-CEM
COLO 205 = test system: COLO 205
DLD-1 = test system: DLD-1
DMS-114 = test system: DMS-114
DMS-273 = test system: DMS-273
DU-145 = test system: DU-145
EKVX = test system: EKVX
HCC 2998 = test system: HCC 2998
HCT-116 = test system: HCT-116
HCT-15 = test system: HCT-15
HL-60 = test system: HL-60
HOP-18 = test system: HOP-18
HOP-62 = test system: HOP-62
HOP-92 = test system: HOP-92
HT-29 = test system: HT-29
Hs-578T = test system: Hs-578T
IGROV-1 = test system: IGROV-1
K562 = test system: K562
KM-20L2 = test system: KM-20L2
KM12 = test system: KM12
LOX IMVI = test system: LOX IMVI
LXFL 529 = test system: LXFL 529
M14 = test system: M14
M19-MEL = test system: M19-MEL
MCF7 = test system: MCF7
MDA-MB-231 = test system: MDA-MB-231
MDA-MB-435 = test system: MDA-MB-435
MDA-N = test system: MDA-N
MOLT-4 = test system: MOLT-4
Malme-3M = test system: Malme-3M
NCI-H226 = test system: NCI-H226
NCI-H23 = test system: NCI-H23
NCI-H460 = test system: NCI-H460
NCI-H522 = test system: NCI-H522
NCI/ADR-RES = test system: NCI/ADR-RES
OVCAR-3 = test system: OVCAR-3
OVCAR-4 = test system: OVCAR-4
OVCAR-5 = test system: OVCAR-5
OVCAR-8 = test system: OVCAR-8
PC-3 = test system: PC-3
RPMI-8226 = test system: RPMI-8226
RXF 393 = test system: RXF 393
RXF 631 = test system: RXF 631
SF-268 = test system: SF-268
SF-295 = test system: SF-295
SF-539 = test system: SF-539
SK-MEL-28 = test system: SK-MEL-28
SK-MEL-2 = test system: SK-MEL-2
SK-MEL-5 = test system: SK-MEL-5
SK-OV-3 = test system: SK-OV-3
SN12C = test system: SN12C
SNB-19 = test system: SNB-19
SNB-75 = test system: SNB-75
SNB-78 = test system: SNB-78
SR = test system: SR
SW-620 = test system: SW-620
T47D = test system: T47D
TK-10 = test system: TK-10
U-251 = test system: U-251
UACC-257 = test system: UACC-257
UACC-62 = test system: UACC-62
UO-31 = test system: UO-31
XF498 = test system: XF498

In the case of `N=C(N)NCCCS(=O)(=O)Nc1ccc(Nc2c3ccccc3nc3cc([N+](=O)[O-])ccc23)cc1`, the GI50 (786-0) is reported as 19.2 µM (inactive), the GI50 (A498) is reported as 17.5 µM (inactive) and the GI50 (A549) is reported as 5.31 µM (inactive). For the same compound, the GI50 (ACHN) was 21.4 µM (inactive), the GI50 (BT-549) was 27.2 µM (inactive) and the GI50 (CAKI-1) was 40.8 µM (inactive). The GI50 (CCRF-CEM) was 12.6 µM (inactive), the GI50 (COLO 205) was 14.5 µM (inactive) and the GI50 (DLD-1) was 30.1 µM (inactive). The GI50 (DMS-114) was 4.72 µM (inactive), the GI50 (DMS-273) was 4.21 µM (inactive) and the GI50 (DU-145) was 9.33 µM (inactive). The GI50 (EKVX) was 15.7 µM (inactive), the GI50 (HCC 2998) was 14.7 µM (inactive) and the GI50 (HCT-116) was 16.5 µM (inactive). For the same compound, the GI50 (HCT-15) was over 85.9 µM, the GI50 (HL-60) was 22.3 µM (inactive) and the GI50 (HOP-18) was 20.8 µM (inactive). For the same compound, the GI50 (HOP-62) was 14.5 µM (inactive), the GI50 (HOP-92) was 4.9 µM (inactive) and the GI50 (HT-29) was 16.9 µM (inactive). The GI50 (Hs-578T) was 12.5 µM (inactive), the GI50 (IGROV-1) was 18.4 µM (inactive) and the GI50 (K562) was 22.3 µM (inactive). The GI50 (KM-20L2) was 23.9 µM (inactive), the GI50 (KM12) was 10.2 µM (inactive) and the GI50 (LOX IMVI) was 16.4 µM (inactive). For the same compound, the GI50 (LXFL 529) was 5.62 µM (inactive), the GI50 (M14) was 16.4 µM (inactive) and the GI50 (M19-MEL) was 3.63 µM (inactive). For the same compound, the GI50 (MCF7) was 2.53 µM (inactive), the GI50 (MDA-MB-231) was 35.2 µM (inactive) and the GI50 (MDA-MB-435) was > 100 µM (inactive). The GI50 (MDA-N) was 21.3 µM (inactive), the GI50 (MOLT-4) was 2.33 µM (inactive) and the GI50 (Malme-3M) was 10.1 µM (inactive). For the same compound, the GI50 (NCI-H226) was 11.7 µM (inactive), the GI50 (NCI-H23) was 4.65 µM (inactive) and the GI50 (NCI-H460) was 0.265 µM (active). For the same compound, the GI50 (NCI-H522) was 7.06 µM (inactive), the GI50 (NCI/ADR-RES) was 19.6 µM (inactive) and the GI50 (OVCAR-3) was 15.6 µM (inactive). The GI50 (OVCAR-4) was 16.6 µM (inactive), the GI50 (OVCAR-5) was 25.4 µM (inactive) and the GI50 (OVCAR-8) was 20.6 µM (inactive). For the same compound, the GI50 (PC-3) was 11.7 µM (inactive), the GI50 (RPMI-8226) was 3.8 µM (inactive) and the GI50 (RXF 393) was 20.8 µM (inactive). For the same compound, the GI50 (RXF 631) was 25.7 µM (inactive), the GI50 (SF-268) was 6.19 µM (inactive) and the GI50 (SF-295) was 20.3 µM (inactive). The GI50 (SF-539) was 20.3 µM (inactive), the GI50 (SK-MEL-28) was 18.1 µM (inactive) and the GI50 (SK-MEL-2) was 21.6 µM (inactive). For the same compound, the GI50 (SK-MEL-5) was 5.55 µM (inactive), the GI50 (SK-OV-3) was 17.3 µM (inactive) and the GI50 (SN12C) was 4.83 µM (inactive). The GI50 (SNB-19) was 2.9 µM (inactive), the GI50 (SNB-75) was 13 µM (inactive) and the GI50 (SNB-78) was 21.4 µM (inactive). For the same compound, the GI50 (SR) was 5.42 µM (inactive), the GI50 (SW-620) was 14.9 µM (inactive) and the GI50 (T47D) was 0.728 µM (active). The GI50 (TK-10) was 21.2 µM (inactive), the GI50 (U-251) was 4.05 µM (inactive) and the GI50 (UACC-257) was 22.5 µM (inactive). The GI50 (UACC-62) was 12.1 µM (inactive), the GI50 (UO-31) was > 68.4 µM (inactive) and the GI50 (XF498) was 1.91 µM (inactive).

For `CCN(CC)CCOc1ccc(CCc2cc(OC)c(OC)c(OC)c2)cc1`, the GI50 (786-0) was 37.1 µM (inactive), the GI50 (A498) was 22 µM (inactive) and the GI50 (A549) was 47.3 µM (inactive). For the same compound, the GI50 (ACHN) was 50.4 µM (inactive), the GI50 (CAKI-1) was 53.2 µM (inactive) and the GI50 (CCRF-CEM) was 64.1 µM (inactive). For the same compound, the GI50 (COLO 205) was 17.3 µM (inactive), the GI50 (DLD-1) was 64.1 µM (inactive) and the GI50 (DMS-114) was 21.9 µM (inactive). For the same compound, the GI50 (DMS-273) was 18.2 µM (inactive), the GI50 (EKVX) was 65.3 µM (inactive) and the GI50 (HCT-116) was 32.5 µM (inactive). The GI50 (HCT-15) was 30.7 µM, the GI50 (HL-60) was 18.9 µM (inactive) and the GI50 (HOP-18) was > 100 µM (inactive). For the same compound, the GI50 (HOP-62) was 22.6 µM (inactive), the GI50 (HOP-92) was 20.6 µM (inactive) and the GI50 (HT-29) was 17.5 µM (inactive). The GI50 (IGROV-1) was > 100 µM (inactive), the GI50 (K562) was 27.8 µM (inactive) and the GI50 (KM-20L2) was 31.9 µM (inactive). The GI50 (KM12) was 35.3 µM (inactive), the GI50 (LOX IMVI) was 13.9 µM (inactive) and the GI50 (LXFL 529) was 35.1 µM (inactive). The GI50 (M14) was 17.5 µM (inactive), the GI50 (M19-MEL) was 23.8 µM (inactive) and the GI50 (MOLT-4) was 21.9 µM (inactive). For the same compound, the GI50 (Malme-3M) was 43.9 µM (inactive), the GI50 (NCI-H226) was 45 µM (inactive) and the GI50 (NCI-H460) was 38.5 µM (inactive). The GI50 (NCI-H522) was 20 µM (inactive), the GI50 (OVCAR-3) was 45.7 µM (inactive) and the GI50 (OVCAR-4) was 55.3 µM (inactive). The GI50 (OVCAR-5) was 22.3 µM (inactive), the GI50 (OVCAR-8) was 67.9 µM (inactive) and the GI50 (RPMI-8226) was 16.8 µM (inactive). For the same compound, the GI50 (RXF 393) was 34.9 µM (inactive), the GI50 (RXF 631) was 53.5 µM (inactive) and the GI50 (SF-268) was > 100 µM (inactive). The GI50 (SF-295) was 18.4 µM (inactive), the GI50 (SF-539) was 81.7 µM (inactive) and the GI50 (SK-MEL-28) was 78 µM (inactive). For the same compound, the GI50 (SK-MEL-5) was 15.6 µM (inactive), the GI50 (SN12C) was > 100 µM (inactive) and the GI50 (SNB-19) was > 100 µM (inactive). For the same compound, the GI50 (SNB-75) was 31.3 µM (inactive), the GI50 (SNB-78) was > 100 µM (inactive) and the GI50 (SR) was 31.3 µM (inactive). For the same compound, the GI50 (SW-620) was 18.4 µM (inactive), the GI50 (TK-10) was 30.5 µM (inactive) and the GI50 (U-251) was 45.3 µM (inactive). For the same compound, the GI50 (UACC-257) was 27.9 µM (inactive), the GI50 (UACC-62) was 26.1 µM (inactive) and the GI50 (UO-31) was 28.2 µM (inactive). For the same compound, the GI50 (XF498) was 23.7 µM (inactive).
